In ChEMBL document CHEMBL1201862, “PubChem BioAssay data set” (2004):
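1) Cells in 96-well plates. 2) Compound, 48 h, 5 concentrations. 3) Linear interpolation between surrounding doses. 4) Unreached endpoint = highest concentration. Here, GI50 denotes the concentration required for 50% inhibition of growth.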 The source made the active and inactive calls. Cut-off read from the data, not from the text of the source: active = GI50 up to about 1.1 µM and inactive = higher.

Legend:
Test in all cases: growth of human tumour cells (NCI), 48 h
786-0 = tested on: 786-0
A498 = tested on: A498
A549 = tested on: A549
ACHN = tested on: ACHN
BT-549 = tested on: BT-549
CAKI-1 = tested on: CAKI-1
CCRF-CEM = tested on: CCRF-CEM
COLO 205 = tested on: COLO 205
DU-145 = tested on: DU-145
EKVX = tested on: EKVX
HCC 2998 = tested on: HCC 2998
HCT-116 = tested on: HCT-116
HCT-15 = tested on: HCT-15
HL-60 = tested on: HL-60
HOP-62 = tested on: HOP-62
HOP-92 = tested on: HOP-92
HT-29 = tested on: HT-29
Hs-578T = tested on: Hs-578T
IGROV-1 = tested on: IGROV-1
K562 = tested on: K562
KM12 = tested on: KM12
LOX IMVI = tested on: LOX IMVI
M14 = tested on: M14
MCF7 = tested on: MCF7
MDA-MB-231 = tested on: MDA-MB-231
MDA-MB-435 = tested on: MDA-MB-435
MDA-N = tested on: MDA-N
MOLT-4 = tested on: MOLT-4
Malme-3M = tested on: Malme-3M
NCI-H23 = tested on: NCI-H23
NCI-H460 = tested on: NCI-H460
NCI-H522 = tested on: NCI-H522
NCI/ADR-RES = tested on: NCI/ADR-RES
OVCAR-3 = tested on: OVCAR-3
OVCAR-4 = tested on: OVCAR-4
OVCAR-5 = tested on: OVCAR-5
OVCAR-8 = tested on: OVCAR-8
PC-3 = tested on: PC-3
RPMI-8226 = tested on: RPMI-8226
RXF 393 = tested on: RXF 393
SF-268 = tested on: SF-268
SF-295 = tested on: SF-295
SF-539 = tested on: SF-539
SK-MEL-28 = tested on: SK-MEL-28
SK-MEL-2 = tested on: SK-MEL-2
SK-MEL-5 = tested on: SK-MEL-5
SK-OV-3 = tested on: SK-OV-3
SN12C = tested on: SN12C
SNB-19 = tested on: SNB-19
SNB-75 = tested on: SNB-75
SR = tested on: SR
SW-620 = tested on: SW-620
T47D = tested on: T47D
TK-10 = tested on: TK-10
U-251 = tested on: U-251
UACC-257 = tested on: UACC-257
UACC-62 = tested on: UACC-62
UO-31 = tested on: UO-31
NCI-H226 = tested on: NCI-H226

For `COC(=O)C(Cc1ccccc1)NS(=O)(=O)c1ccc(-c2c3nc(c(-c4ccc(S(=O)(=O)NC(Cc5ccccc5)C(=O)OC)cc4)c4ccc([nH]4)c(-c4ccc(S(=O)(=O)NC(Cc5ccccc5)C(=O)OC)cc4)c4nc(c(-c5ccc(S(=O)(=O)NC(Cc6ccccc6)C(=O)OC)cc5)c5ccc2[nH]5)C=C4)C=C3)cc1` (stereo not drawn), which GI50 (786-0) is on record?
Its GI50 is 53.6 µM (inactive).

And the GI50 (A498)?
The GI50 was > 100 µM (inactive).

What about the GI50 (A549) of the same compound?
The GI50 was > 100 µM (inactive).

And the GI50 (ACHN)?
The GI50 was > 100 µM (inactive).

And the GI50 (BT-549)?
The GI50 was > 100 µM (inactive).

And the GI50 (CAKI-1)?
The GI50 was > 100 µM (inactive).

What about the GI50 (CCRF-CEM) of the same compound?
The GI50 was > 100 µM (inactive).

And the GI50 (COLO 205)?
Its GI50 is > 100 µM (inactive).

And the GI50 (DU-145)?
Its GI50 is > 100 µM (inactive).

What about the GI50 (EKVX) of the same compound?
The GI50 was > 100 µM (inactive).

What about the GI50 (HCC 2998) of the same compound?
The GI50 was > 100 µM (inactive).

And the GI50 (HCT-116)?
Its GI50 is > 100 µM (inactive).

What about the GI50 (HCT-15) of the same compound?
Its GI50 is greater than 100 µM.

What about the GI50 (HL-60) of the same compound?
Its GI50 is > 100 µM (inactive).

And the GI50 (HOP-62)?
The GI50 was 60.8 µM (inactive).

And the GI50 (HOP-92)?
Its GI50 is 31.8 µM (inactive).

And the GI50 (HT-29)?
The GI50 was > 100 µM (inactive).

What about the GI50 (Hs-578T) of the same compound?
Its GI50 is 17.1 µM (inactive).

What about the GI50 (IGROV-1) of the same compound?
The GI50 was > 100 µM (inactive).

What about the GI50 (K562) of the same compound?
Its GI50 is > 100 µM (inactive).

What about the GI50 (KM12) of the same compound?
Its GI50 is > 100 µM (inactive).

And the GI50 (LOX IMVI)?
Its GI50 is > 100 µM (inactive).

What about the GI50 (M14) of the same compound?
The GI50 was > 100 µM (inactive).

What about the GI50 (MCF7) of the same compound?
The GI50 was > 100 µM (inactive).

What about the GI50 (MDA-MB-231) of the same compound?
The GI50 was > 100 µM (inactive).

And the GI50 (MDA-MB-435)?
Its GI50 is > 100 µM (inactive).

And the GI50 (MDA-N)?
Its GI50 is > 100 µM (inactive).

And the GI50 (MOLT-4)?
The GI50 was > 100 µM (inactive).

What about the GI50 (Malme-3M) of the same compound?
The GI50 was > 100 µM (inactive).

What about the GI50 (NCI-H23) of the same compound?
Its GI50 is > 100 µM (inactive).

What about the GI50 (NCI-H460) of the same compound?
The GI50 was 85.5 µM (inactive).

What about the GI50 (NCI-H522) of the same compound?
Its GI50 is > 100 µM (inactive).

What about the GI50 (NCI/ADR-RES) of the same compound?
Its GI50 is > 100 µM (inactive).

What about the GI50 (OVCAR-3) of the same compound?
The GI50 was > 100 µM (inactive).

And the GI50 (OVCAR-4)?
The GI50 was > 100 µM (inactive).

And the GI50 (OVCAR-5)?
The GI50 was > 100 µM (inactive).

What about the GI50 (OVCAR-8) of the same compound?
Its GI50 is > 100 µM (inactive).

What about the GI50 (PC-3) of the same compound?
The GI50 was > 100 µM (inactive).

And the GI50 (RPMI-8226)?
The GI50 was > 100 µM (inactive).

What about the GI50 (RXF 393) of the same compound?
The GI50 was 39.4 µM (inactive).

What about the GI50 (SF-268) of the same compound?
Its GI50 is > 100 µM (inactive).

What about the GI50 (SF-295) of the same compound?
The GI50 was 54.6 µM (inactive).

And the GI50 (SF-539)?
The GI50 was > 100 µM (inactive).

And the GI50 (SK-MEL-28)?
Its GI50 is > 100 µM (inactive).

And the GI50 (SK-MEL-2)?
The GI50 was > 100 µM (inactive).

What about the GI50 (SK-MEL-5) of the same compound?
The GI50 was > 100 µM (inactive).

What about the GI50 (SK-OV-3) of the same compound?
Its GI50 is > 100 µM (inactive).

What about the GI50 (SN12C) of the same compound?
The GI50 was > 100 µM (inactive).

And the GI50 (SNB-19)?
Its GI50 is 40.9 µM (inactive).

And the GI50 (SNB-75)?
Its GI50 is 12.5 µM (inactive).

And the GI50 (SR)?
The GI50 was > 100 µM (inactive).

And the GI50 (SW-620)?
The GI50 was > 100 µM (inactive).

And the GI50 (T47D)?
The GI50 was > 100 µM (inactive).

And the GI50 (TK-10)?
The GI50 was > 100 µM (inactive).

What about the GI50 (U-251) of the same compound?
The GI50 was 28.1 µM (inactive).

What about the GI50 (UACC-257) of the same compound?
The GI50 was > 100 µM (inactive).

And the GI50 (UACC-62)?
The GI50 was > 100 µM (inactive).

And the GI50 (UO-31)?
Its GI50 is > 100 µM (inactive).

With `N#C[BH2-][n+]1ccc(C(=O)NNCc2ccccc2)cc1` as the compound, how does the GI50 (786-0) read?
The GI50 was > 100 µM (inactive).

What about the GI50 (A498) of the same compound?
The GI50 was > 100 µM (inactive).

And the GI50 (A549)?
The GI50 was > 100 µM (inactive).

What about the GI50 (ACHN) of the same compound?
The GI50 was > 100 µM (inactive).

What about the GI50 (BT-549) of the same compound?
Its GI50 is > 100 µM (inactive).

And the GI50 (CAKI-1)?
Its GI50 is > 100 µM (inactive).

And the GI50 (CCRF-CEM)?
The GI50 was > 100 µM (inactive).

And the GI50 (COLO 205)?
Its GI50 is > 100 µM (inactive).

What about the GI50 (DU-145) of the same compound?
Its GI50 is > 100 µM (inactive).

And the GI50 (EKVX)?
Its GI50 is > 100 µM (inactive).

What about the GI50 (HCC 2998) of the same compound?
Its GI50 is > 100 µM (inactive).

And the GI50 (HCT-116)?
The GI50 was > 100 µM (inactive).

And the GI50 (HCT-15)?
Its GI50 is greater than 100 µM.

And the GI50 (HL-60)?
Its GI50 is > 100 µM (inactive).

What about the GI50 (HOP-92) of the same compound?
The GI50 was > 100 µM (inactive).

And the GI50 (Hs-578T)?
The GI50 was > 100 µM (inactive).

What about the GI50 (IGROV-1) of the same compound?
The GI50 was > 100 µM (inactive).

What about the GI50 (K562) of the same compound?
Its GI50 is > 100 µM (inactive).

And the GI50 (KM12)?
The GI50 was > 100 µM (inactive).

What about the GI50 (LOX IMVI) of the same compound?
Its GI50 is > 100 µM (inactive).

What about the GI50 (M14) of the same compound?
The GI50 was > 100 µM (inactive).

What about the GI50 (MCF7) of the same compound?
Its GI50 is > 100 µM (inactive).

And the GI50 (MDA-MB-231)?
Its GI50 is > 100 µM (inactive).

And the GI50 (MDA-MB-435)?
The GI50 was > 100 µM (inactive).

And the GI50 (MDA-N)?
Its GI50 is > 100 µM (inactive).

What about the GI50 (MOLT-4) of the same compound?
The GI50 was > 100 µM (inactive).

And the GI50 (Malme-3M)?
The GI50 was > 100 µM (inactive).

What about the GI50 (NCI-H226) of the same compound?
Its GI50 is > 100 µM (inactive).

And the GI50 (NCI-H460)?
The GI50 was > 100 µM (inactive).

What about the GI50 (NCI-H522) of the same compound?
Its GI50 is > 100 µM (inactive).

And the GI50 (NCI/ADR-RES)?
The GI50 was > 100 µM (inactive).

What about the GI50 (OVCAR-3) of the same compound?
Its GI50 is > 100 µM (inactive).

And the GI50 (OVCAR-4)?
The GI50 was > 100 µM (inactive).

And the GI50 (OVCAR-5)?
Its GI50 is > 100 µM (inactive).

What about the GI50 (OVCAR-8) of the same compound?
The GI50 was > 100 µM (inactive).

And the GI50 (PC-3)?
The GI50 was > 100 µM (inactive).

And the GI50 (RPMI-8226)?
The GI50 was > 100 µM (inactive).

And the GI50 (RXF 393)?
The GI50 was > 100 µM (inactive).

What about the GI50 (SF-268) of the same compound?
Its GI50 is > 100 µM (inactive).

And the GI50 (SF-295)?
Its GI50 is > 100 µM (inactive).

What about the GI50 (SF-539) of the same compound?
The GI50 was > 100 µM (inactive).

What about the GI50 (SK-MEL-28) of the same compound?
Its GI50 is > 100 µM (inactive).

And the GI50 (SK-MEL-2)?
The GI50 was > 100 µM (inactive).

What about the GI50 (SK-MEL-5) of the same compound?
Its GI50 is > 100 µM (inactive).

What about the GI50 (SN12C) of the same compound?
Its GI50 is > 100 µM (inactive).

And the GI50 (SNB-19)?
Its GI50 is > 100 µM (inactive).

What about the GI50 (SNB-75) of the same compound?
Its GI50 is > 100 µM (inactive).

What about the GI50 (SR) of the same compound?
The GI50 was > 100 µM (inactive).

And the GI50 (SW-620)?
The GI50 was > 100 µM (inactive).

And the GI50 (T47D)?
The GI50 was > 100 µM (inactive).

And the GI50 (TK-10)?
Its GI50 is > 100 µM (inactive).

What about the GI50 (U-251) of the same compound?
Its GI50 is > 100 µM (inactive).

And the GI50 (UACC-257)?
Its GI50 is > 100 µM (inactive).

What about the GI50 (UACC-62) of the same compound?
Its GI50 is > 100 µM (inactive).

What about the GI50 (UO-31) of the same compound?
Its GI50 is > 100 µM (inactive).
